Reference: publication PMC7247319, “The mitochondria-targeted peptide SS-31 binds lipid bilayers and modulates surface electrostatics as a key component of its mechanism of action” (The Journal of Biological Chemistry, 2020)
Where a SMILES comes first, the peptide text is derived from it. [ ]: non-standard residue; d: D form. Dmt = Cc1cc(O)cc(C)c1C[C@H](N)C(=O)O

Tested on: LUVs with 20% TOCL
Experiment: CG-5N assay of Ca2+ accumulation at model membrane interface
Details: peptide titrated into LUVs with 20% TOCL prebound with Ca2+
Source text: Figure 7. SS peptide effects on Ca^2+-membrane interactions and mitochondrial cation stress. A, profiles of surface potential decay (top) and ion distribution (bottom) based on GCS theory in the presence or absence of SS-31 (see supporting Results H for model description). B, effect of SS peptides on Ca^2+ accumulation at model membrane interfaces. […] C and D, effect of SS peptides on mitochondrial Ca^2+ uptake. C, time courses of TMRM or CG-5N emission in mitochondrial suspensions with ETH-129 in the absence (top) or presence (bottom) of SS-31 following the addition of NADH (black arrowheads) and CaCl2 (open arrowheads). See Fig. S18A for experimental details. […] Spectral deconvolution yielded the indicated components (see Fig. S19, A and B), which were used to quantify the area ratios of L2/iso in F (values shown are means ± S.D. (error bars) (n = 3). G, respirometry analysis. Mitochondria (1 mg ml^−1) were treated in the absence or presence of SS-31 (54.4 μM) or CaCl2 (1 mM) as indicated and measured for state 2 respiration (n = 10–12 each).
First, we measured the effects of SS peptides on the accumulation of Ca^2+ in the interfacial region of model membranes. […] We reasoned that the binding of Ca^2+ to the headgroup region of anionic lipid bilayers would reduce the bulk Ca^2+ detected by the CG-5N probe, providing a direct readout of Ca^2+ accumulation at the membrane interface. […]

## Cc1cc(O)cc(C)c1C[C@H](NC(=O)[C@H](N)CCCNC(=N)N)C(=O)N[C@@H](CCCCN)C(=O)N[C@@H](Cc1ccccc1)C(N)=O [SS-31, D-Arg-2′6′-dimethyl-Tyr-Lys-Phe-NH2] (H-[dR][Dmt]KF-NH2)
  release of Ca2+ from membrane interface (CG-5N response): released Ca^2+ from the membrane interface in a dose-dependent manner
